Values quoted from earlier work, collected in US20030148386A1, “Method for drug design using comparative molecular field analysis (CoMFA) extended for multi-mode/multi-species ligand binding and disposition” (priority 2001, published 2003).

Molecular target: T1, aryl hydrocarbon (Ah) receptor (Rattus norvegicus, UniProt P41738)
T1 sequence (P41738 10-853): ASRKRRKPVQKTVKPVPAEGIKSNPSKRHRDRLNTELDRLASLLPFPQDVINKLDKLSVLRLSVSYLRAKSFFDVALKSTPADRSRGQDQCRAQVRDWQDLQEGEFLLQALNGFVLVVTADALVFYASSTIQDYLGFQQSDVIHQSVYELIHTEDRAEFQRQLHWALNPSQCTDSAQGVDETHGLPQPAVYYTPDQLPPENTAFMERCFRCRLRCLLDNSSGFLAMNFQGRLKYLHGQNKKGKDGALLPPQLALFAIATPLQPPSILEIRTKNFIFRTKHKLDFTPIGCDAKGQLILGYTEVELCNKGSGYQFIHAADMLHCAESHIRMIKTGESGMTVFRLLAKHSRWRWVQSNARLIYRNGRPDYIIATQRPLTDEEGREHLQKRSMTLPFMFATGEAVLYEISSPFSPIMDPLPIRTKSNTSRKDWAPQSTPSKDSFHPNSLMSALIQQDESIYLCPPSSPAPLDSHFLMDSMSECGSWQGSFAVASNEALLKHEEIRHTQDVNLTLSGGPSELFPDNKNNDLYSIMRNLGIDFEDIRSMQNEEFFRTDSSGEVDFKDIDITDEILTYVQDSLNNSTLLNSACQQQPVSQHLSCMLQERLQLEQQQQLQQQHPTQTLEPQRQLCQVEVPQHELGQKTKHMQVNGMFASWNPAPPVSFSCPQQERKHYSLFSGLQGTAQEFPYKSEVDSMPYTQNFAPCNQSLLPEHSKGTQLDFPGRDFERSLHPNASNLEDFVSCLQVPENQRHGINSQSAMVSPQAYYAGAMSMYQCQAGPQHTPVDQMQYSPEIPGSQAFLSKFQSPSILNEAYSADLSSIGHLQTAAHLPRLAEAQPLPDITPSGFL
Settings: for pEC50 observed: pEC50=-log(EC50)=logKi, EC50 in mol/L, displacement of radiolabeled TCDD

SMILES | pEC50 observed | binding affinity to the Ah receptor (in words)
Clc1ccc2c(c1)oc1ccccc12 [Compound 03] | 4.377 ± 0.058 | 
Clc1cc(Cl)c2c(c1)oc1c(Cl)cccc12 [Compound 08] | 5.357 | 
Clc1cc(Cl)c2c(c1)oc1ccc(Cl)cc12 [Compound 09] | 4.071 | 
Clc1cc2oc3c(Cl)cccc3c2c(Cl)c1Cl [Compound 13] | 6.456 | 
Clc1ccc2c(c1)oc1cc(Cl)c(Cl)c(Cl)c12 [Compound 14] | 6.959 | 
Clc1cc2c(oc3c(Cl)cccc32)c(Cl)c1Cl [Compound 16] | 6.456 | 
Clc1ccc2c(c1)oc1c(Cl)c(Cl)c(Cl)cc12 [Compound 17] | 7.602 | 
Clc1ccc2oc3c(Cl)c(Cl)c(Cl)cc3c2c1 [Compound 18] | 6.699 | 
Clc1cc(Cl)c2oc3cc(Cl)c(Cl)cc3c2c1 [Compound 19] | 6.658 | 
Clc1cc2oc3cc(Cl)c(Cl)cc3c2cc1Cl [Compound 20] | 7.387 ± 0.059 | 
Clc1ccc2oc3c(Cl)c(Cl)c(Cl)c(Cl)c3c2c1 [Compound 21] | 6.921 | 
Clc1cc2oc3cc(Cl)c(Cl)c(Cl)c3c2cc1Cl [Compound 22] | 7.128 ± 0.105 | 
Clc1cc(Cl)c2c(c1)oc1cc(Cl)c(Cl)c(Cl)c12 [Compound 23] | 6.398 | 
Clc1ccc2c(oc3c(Cl)cc(Cl)c(Cl)c32)c1Cl [Compound 24] | 7.169 | 
Clc1cc(Cl)c2oc3c(Cl)cc(Cl)c(Cl)c3c2c1 [Compound 25] | 5.509 | 
Clc1cc2oc3c(Cl)cc(Cl)c(Cl)c3c2cc1Cl [Compound 26] | 5.886 | 
Clc1cc(Cl)c2c(c1)oc1c(Cl)cc(Cl)c(Cl)c12 [Compound 27] | 4.699 | 
Clc1cc2oc3c(Cl)c(Cl)cc(Cl)c3c2cc1Cl [Compound 28] | 6.699 | 
Clc1cc2oc3c(Cl)c(Cl)c(Cl)cc3c2cc1Cl [Compound 29] | 7.824 ± 0.028 | highest binding affinity
Clc1cc(Cl)c2c(c1)oc1c(Cl)c(Cl)c(Cl)cc12 [Compound 30] | 6.699 | 
Clc1cc2oc3c(Cl)c(Cl)c(Cl)c(Cl)c3c2cc1Cl [Compound 31] | 6.638 | 
Clc1cc2c(oc3cc(Cl)c(Cl)c(Cl)c32)c(Cl)c1Cl [Compound 32] | 6.569 ± 0.137 | 
Clc1cc2c(oc3c(Cl)cc(Cl)c(Cl)c32)c(Cl)c1Cl [Compound 33] | 5.081 | 
Clc1cc2c(oc3c(Cl)c(Cl)c(Cl)cc32)c(Cl)c1Cl [Compound 34] | 7.328 ± 0.036 | 
Clc1cc2c(cc1Cl)Oc1cc(Cl)c(Cl)cc1O2 [TCDD, 2,3,7,8-tetrachloro dibenzodioxin, reference compound] |  | highest binding affinity
